Paper PMC4441267

Experiment: RuAAC macrocyclisation of azide/terminal alkyne linear peptidomimetics to 1,5-triazole ([Cp*RuCl]4 0.1 eq, Ar-degassed), then Boc removal (TMSCl/MeOH GP4 or HCl/dioxane GP5)
Details: toluene (reflux), 1.25 mM, 111.0 °C, 18.0 h, 2 steps

## COC(=O)[C@@H]1CCCn2nncc2CNC(=O)NCCC[C@H](N)C(=O)N1 [Boc-Orn(CONH-propargyl)-Orn(N3)-OMe]
From C#CCNC(=O)NCCC[C@H](NC(=O)OC(C)(C)C)C(=O)N[C@@H](CCCN=[N+]=[N-])C(=O)OC, 16-membered ring
  ring closure, yield over several steps: 99%

## COC(=O)[C@@H]1CCCCn2nncc2CCCC(=O)NC[C@H](N)C(=O)N1 [Boc-Dap(5-hexynoyl)-Lys(N3)-OMe]
From C#CCCCC(=O)NC[C@H](NC(=O)OC(C)(C)C)C(=O)N[C@@H](CCCCN=[N+]=[N-])C(=O)OC, 16-membered ring
  ring closure, yield over several steps: 99%

## COC(=O)[C@@H]1CCCCn2nncc2CCCC(=O)NCCC[C@H](N)C(=O)N1 [Boc-Orn(5-hexynoyl)-Lys(N3)-OMe]
From C#CCCCC(=O)NCCC[C@H](NC(=O)OC(C)(C)C)C(=O)N[C@@H](CCCCN=[N+]=[N-])C(=O)OC, 18-membered ring
  ring closure, yield over several steps: 99%

## COC(=O)[C@@H]1CCCCNC(=O)[C@H](Cc2ccccc2)n2nncc2CCC(=O)Nc2ccc(cc2)C[C@H](N)C(=O)N1 [Boc-Phe(4-NH-4-pentynoyl)-Lys(N3-Phe)-OMe]
From C#CCCC(=O)Nc1ccc(C[C@H](NC(=O)OC(C)(C)C)C(=O)N[C@@H](CCCCNC(=O)[C@H](Cc2ccccc2)N=[N+]=[N-])C(=O)OC)cc1, 22-membered ring
  ring closure, yield over several steps: 57%

## COC(=O)[C@@H]1CCCCn2nncc2CCCC(=O)Nc2ccc(cc2)C[C@H](N)C(=O)N1 [Boc-Phe(4-NH-5-hexynoyl)-Lys(N3)-OMe]
From C#CCCCC(=O)Nc1ccc(C[C@H](NC(=O)OC(C)(C)C)C(=O)N[C@@H](CCCCN=[N+]=[N-])C(=O)OC)cc1, 20-membered ring
  ring closure, yield over several steps: 66%

## COC(=O)[C@@H]1CCCn2nncc2CCCC(=O)NCC[C@H](N)C(=O)N1 [Boc-Dab(5-hexynoyl)-Orn(N3)-OMe]
From C#CCCCC(=O)NCC[C@H](NC(=O)OC(C)(C)C)C(=O)N[C@@H](CCCN=[N+]=[N-])C(=O)OC, 16-membered ring
  ring closure, yield over several steps: 99%

## COC(=O)[C@@H]1CCCCn2nncc2CCC(=O)NCCCC[C@H](N)C(=O)N1 [Boc-Lys(4-pentynoyl)-Lys(N3)-OMe]
From C#CCCC(=O)NCCCC[C@H](NC(=O)OC(C)(C)C)C(=O)N[C@@H](CCCCN=[N+]=[N-])C(=O)OC, 18-membered ring
  ring closure, yield over several steps: 37%

## COC(=O)[C@@H]1CNC(=O)[C@H](Cc2ccccc2)n2nncc2CCCC(=O)Nc2ccc(cc2)C[C@H](N)C(=O)N1 [Boc-Phe(4-NH-5-hexynoyl)-Dap(N3-Phe)-OMe]
From C#CCCCC(=O)Nc1ccc(C[C@H](NC(=O)OC(C)(C)C)C(=O)N[C@@H](CNC(=O)[C@H](Cc2ccccc2)N=[N+]=[N-])C(=O)OC)cc1, 20-membered ring
  ring closure, yield over several steps: 15%

## COC(=O)[C@@H]1CCCCn2nncc2CNC(=O)NCCCC[C@H](N)C(=O)N1 [Boc-Lys(CONH-propargyl)-Lys(N3)-OMe]
From C#CCNC(=O)NCCCC[C@H](NC(=O)OC(C)(C)C)C(=O)N[C@@H](CCCCN=[N+]=[N-])C(=O)OC, 18-membered ring
  ring closure, yield over several steps: 99%

## COC(=O)[C@@H]1CNC(=O)[C@H](Cc2ccccc2)n2nncc2CCCC(=O)NCCC[C@H](N)C(=O)N1 [Boc-Orn(5-hexynoyl)-Dap(N3-Phe)-OMe]
From C#CCCCC(=O)NCCC[C@H](NC(=O)OC(C)(C)C)C(=O)N[C@@H](CNC(=O)[C@H](Cc1ccccc1)N=[N+]=[N-])C(=O)OC, 18-membered ring
  ring closure, yield over several steps: 46%

## COC(=O)[C@@H]1CCCn2nncc2CNC(=O)NCC[C@H](N)C(=O)N1 [Boc-Dab(CONH-propargyl)-Orn(N3)-OMe]
From C#CCNC(=O)NCC[C@H](NC(=O)OC(C)(C)C)C(=O)N[C@@H](CCCN=[N+]=[N-])C(=O)OC, 15-membered ring
  ring closure, yield over several steps: 99%

## COC(=O)[C@@H]1CCCCn2nncc2CCC(=O)NCCC[C@H](N)C(=O)N1 [Boc-Orn(4-pentynoyl)-Lys(N3)-OMe]
From C#CCCC(=O)NCCC[C@H](NC(=O)OC(C)(C)C)C(=O)N[C@@H](CCCCN=[N+]=[N-])C(=O)OC, 17-membered ring
  ring closure, yield over several steps: 82%

## COC(=O)[C@@H]1CCCCNC(=O)[C@H](Cc2ccccc2)n2nncc2CCCC(=O)Nc2ccc(cc2)C[C@H](N)C(=O)N1 [Boc-Phe(4-NH-5-hexynoyl)-Lys(N3-Phe)-OMe]
From C#CCCCC(=O)Nc1ccc(C[C@H](NC(=O)OC(C)(C)C)C(=O)N[C@@H](CCCCNC(=O)[C@H](Cc2ccccc2)N=[N+]=[N-])C(=O)OC)cc1, 23-membered ring
  ring closure, yield over several steps: 50%

## COC(=O)[C@@H]1CNC(=O)[C@H](Cc2ccccc2)n2nncc2CCCC(=O)NC[C@H](N)C(=O)N1 [Boc-Dap(5-hexynoyl)-Dap(N3-Phe)-OMe]
From C#CCCCC(=O)NC[C@H](NC(=O)OC(C)(C)C)C(=O)N[C@@H](CNC(=O)[C@H](Cc1ccccc1)N=[N+]=[N-])C(=O)OC, 16-membered ring
  ring closure, yield over several steps: 99%

## COC(=O)[C@@H]1CCCCNC(=O)[C@H](Cc2ccccc2)n2nncc2CCCC(=O)NCCC[C@H](N)C(=O)N1 [Boc-Orn(5-hexynoyl)-Lys(N3-Phe)-OMe]
From C#CCCCC(=O)NCCC[C@H](NC(=O)OC(C)(C)C)C(=O)N[C@@H](CCCCNC(=O)[C@H](Cc1ccccc1)N=[N+]=[N-])C(=O)OC, 21-membered ring
  ring closure, yield over several steps: 86%

## COC(=O)[C@@H]1CCCCNC(=O)[C@H](Cc2ccccc2)n2nncc2CCCC(=O)NCCCC[C@H](N)C(=O)N1 [Boc-Lys(5-hexynoyl)-Lys(N3-Phe)-OMe]
From C#CCCCC(=O)NCCCC[C@H](NC(=O)OC(C)(C)C)C(=O)N[C@@H](CCCCNC(=O)[C@H](Cc1ccccc1)N=[N+]=[N-])C(=O)OC, 22-membered ring
  ring closure, yield over several steps: 60%

## COC(=O)[C@@H]1CNC(=O)[C@H](Cc2ccccc2)n2nncc2CCC(=O)NCCC[C@H](N)C(=O)N1 [Boc-Orn(4-pentynoyl)-Dap(N3-Phe)-OMe]
From C#CCCC(=O)NCCC[C@H](NC(=O)OC(C)(C)C)C(=O)N[C@@H](CNC(=O)[C@H](Cc1ccccc1)N=[N+]=[N-])C(=O)OC, 17-membered ring
  ring closure, yield over several steps: 93%

## COC(=O)[C@@H]1CCCn2nncc2CCC(=O)NCCC[C@H](N)C(=O)N1 [Boc-Orn(4-pentynoyl)-Orn(N3)-OMe]
From C#CCCC(=O)NCCC[C@H](NC(=O)OC(C)(C)C)C(=O)N[C@@H](CCCN=[N+]=[N-])C(=O)OC, 16-membered ring
  ring closure, yield over several steps: 99%

## COC(=O)[C@@H]1CCCCNC(=O)[C@H](Cc2ccccc2)n2nncc2CCC(=O)NCCC[C@H](N)C(=O)N1 [Boc-Orn(4-pentynoyl)-Lys(N3-Phe)-OMe]
From C#CCCC(=O)NCCC[C@H](NC(=O)OC(C)(C)C)C(=O)N[C@@H](CCCCNC(=O)[C@H](Cc1ccccc1)N=[N+]=[N-])C(=O)OC, 20-membered ring
  ring closure, yield over several steps: 97%

## COC(=O)[C@@H]1CCCn2nncc2CCCC(=O)Nc2ccc(cc2)C[C@H](N)C(=O)N1 [Boc-Phe(4-NH-5-hexynoyl)-Orn(N3)-OMe]
From C#CCCCC(=O)Nc1ccc(C[C@H](NC(=O)OC(C)(C)C)C(=O)N[C@@H](CCCN=[N+]=[N-])C(=O)OC)cc1, 19-membered ring
  ring closure, yield over several steps: 68%

## COC(=O)[C@@H]1CCCCn2nncc2CCC(=O)Nc2ccc(cc2)C[C@H](N)C(=O)N1 [Boc-Phe(4-NH-4-pentynoyl)-Lys(N3)-OMe]
From C#CCCC(=O)Nc1ccc(C[C@H](NC(=O)OC(C)(C)C)C(=O)N[C@@H](CCCCN=[N+]=[N-])C(=O)OC)cc1, 19-membered ring
  ring closure, yield over several steps: 71%

## COC(=O)[C@@H]1CCCCn2nncc2CNC(=O)NCCC[C@H](N)C(=O)N1 [Boc-Orn(CONH-propargyl)-Lys(N3)-OMe]
From C#CCNC(=O)NCCC[C@H](NC(=O)OC(C)(C)C)C(=O)N[C@@H](CCCCN=[N+]=[N-])C(=O)OC, 17-membered ring
  ring closure, yield over several steps: 99%

## COC(=O)[C@@H]1CNC(=O)[C@H](Cc2ccccc2)n2nncc2CCCC(=O)NCC[C@H](N)C(=O)N1 [Boc-Dab(5-hexynoyl)-Dap(N3-Phe)-OMe]
From C#CCCCC(=O)NCC[C@H](NC(=O)OC(C)(C)C)C(=O)N[C@@H](CNC(=O)[C@H](Cc1ccccc1)N=[N+]=[N-])C(=O)OC, 17-membered ring
  ring closure, yield over several steps: 99%

## COC(=O)[C@@H]1CCCn2nncc2CCCC(=O)NCCC[C@H](N)C(=O)N1 [Boc-Orn(5-hexynoyl)-Orn(N3)-OMe]
From C#CCCCC(=O)NCCC[C@H](NC(=O)OC(C)(C)C)C(=O)N[C@@H](CCCN=[N+]=[N-])C(=O)OC, 17-membered ring
  ring closure, yield over several steps: 99%

## COC(=O)[C@@H]1CCCCn2nncc2CCC(=O)NCC[C@H](N)C(=O)N1 [Boc-Dab(4-pentynoyl)-Lys(N3)-OMe]
From C#CCCC(=O)NCC[C@H](NC(=O)OC(C)(C)C)C(=O)N[C@@H](CCCCN=[N+]=[N-])C(=O)OC, 16-membered ring
  ring closure, yield over several steps: 99%

## COC(=O)[C@@H]1Cc2ccc(cc2)-n2nncc2CNC(=O)NCCC[C@H](N)C(=O)N1 [Boc-Orn(CONH-propargyl)-Phe(4-N3)-OMe]
From C#CCNC(=O)NCCC[C@H](NC(=O)OC(C)(C)C)C(=O)N[C@@H](Cc1ccc(N=[N+]=[N-])cc1)C(=O)OC, 18-membered ring
  ring closure, yield over several steps: 46%
